In patent US12077503B2, “Substituted cyclic amides and their use as herbicides” (FMC CORPORATION, priority 2015, dated 2024):

Key:
Type in all cases: in vivo
Kochia (Kochia scoparia) [1] = experiment: Test A preemergence; conditions: for Plant response rating, Kochia: 125 g ai/ha; for Kochia plant response rating (0 to 100 scale, 0 is no effect, 100 is complete control): 500 g ai/ha, visual injury approx. 10 d
How it was run: (§1)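 Visual injury, scored on a 0–100 scale relative to untreated controls, was recorded about 10 d after application. Treatments were a preemergence soil spray over planted seeds or a postemergence spray on plants at the one- to two-leaf stage, 2 to 10 cm tall, all in loam soil–sand blend in the greenhouse.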

[2] = test system: barnyardgrass (Echinochloa crus-galli); experiment: Test A preemergence; conditions: for Plant response rating, Barnyardgrass: 125 g ai/ha; for Barnyardgrass plant response rating (0 to 100 scale, 0 is no effect, 100 is complete control): 500 g ai/ha, visual injury approx. 10 d
How it was run: as §1

[3] = test system: giant foxtail (Setaria faberii); experiment: Test A preemergence; conditions: for Plant response rating, Foxtail, Giant: 125 g ai/ha; for Foxtail, Giant plant response rating (0 to 100 scale, 0 is no effect, 100 is complete control): 500 g ai/ha, visual injury approx. 10 d
How it was run: as §1

[4] = test system: pigweed (Amaranthus retroflexus); experiment: Test A preemergence; conditions: for Plant response rating, Pigweed: 125 g ai/ha; for Pigweed plant response rating (0 to 100 scale, 0 is no effect, 100 is complete control): 500 g ai/ha, visual injury approx. 10 d
[5] = test system: ragweed (common ragweed, Ambrosia elatior); experiment: Test A preemergence; conditions: for Plant response rating, Ragweed: 125 g ai/ha; for Ragweed plant response rating (0 to 100 scale, 0 is no effect, 100 is complete control): 500 g ai/ha, visual injury approx. 10 d
How it was run: as §1

[6] = test system: ryegrass, Italian (Italian ryegrass, Lolium multiflorum); experiment: Test A preemergence; conditions: for Plant response rating, Ryegrass, Italian: 125 g ai/ha; for Ryegrass, Italian plant response rating (0 to 100 scale, 0 is no effect, 100 is complete control): 500 g ai/ha, visual injury approx. 10 d
How it was run: as §1

[7] = test system: Galium (catchweed bedstraw, Galium aparine); experiment: Test A postemergence; conditions: for Galium plant response rating: 125 g ai/ha, visual injury rating on 0 to 100 scale (0 no effect, 100 complete control), approx. 10 d; for Plant response rating, Galium: 500 g ai/ha
How it was run: as §1

Kochia (Kochia scoparia) [8] = experiment: Test A postemergence; conditions: for Kochia plant response rating: 125 g ai/ha, visual injury rating on 0 to 100 scale (0 no effect, 100 complete control), approx. 10 d; for Plant response rating, Kochia: 500 g ai/ha
How it was run: as §1

[9] = test system: barnyardgrass (Echinochloa crus-galli); experiment: Test A postemergence; conditions: for Barnyardgrass plant response rating: 125 g ai/ha, visual injury rating on 0 to 100 scale (0 no effect, 100 complete control), approx. 10 d; for Plant response rating, Barnyardgrass: 500 g ai/ha
How it was run: as §1

[10] = test system: blackgrass (Alopecurus myosuroides); experiment: Test A postemergence; conditions: for Blackgrass plant response rating: 125 g ai/ha, visual injury rating on 0 to 100 scale (0 no effect, 100 complete control), approx. 10 d; for Plant response rating, Blackgrass: 500 g ai/ha
How it was run: as §1

corn (Zea mays) = experiment: Test A postemergence; conditions: for Corn plant response rating: 125 g ai/ha, visual injury rating on 0 to 100 scale (0 no effect, 100 complete control), approx. 10 d; for Plant response rating, Corn: 500 g ai/ha
How it was run: as §1

[11] = test system: giant foxtail (Setaria faberii); experiment: Test A postemergence; conditions: for Foxtail, Giant plant response rating: 125 g ai/ha, visual injury rating on 0 to 100 scale (0 no effect, 100 complete control), approx. 10 d; for Plant response rating, Foxtail, Giant: 500 g ai/ha
How it was run: as §1

[12] = test system: pigweed (Amaranthus retroflexus); experiment: Test A postemergence; conditions: for Pigweed plant response rating: 125 g ai/ha, visual injury rating on 0 to 100 scale (0 no effect, 100 complete control), approx. 10 d; for Plant response rating, Pigweed: 500 g ai/ha
How it was run: as §1

[13] = test system: ragweed (common ragweed, Ambrosia elatior); experiment: Test A postemergence; conditions: for Ragweed plant response rating: 125 g ai/ha, visual injury rating on 0 to 100 scale (0 no effect, 100 complete control), approx. 10 d; for Plant response rating, Ragweed: 500 g ai/ha
How it was run: as §1

[14] = test system: ryegrass, Italian (Italian ryegrass, Lolium multiflorum); experiment: Test A postemergence; conditions: for Ryegrass, Italian plant response rating: 125 g ai/ha, visual injury rating on 0 to 100 scale (0 no effect, 100 complete control), approx. 10 d; for Plant response rating, Ryegrass, Italian: 500 g ai/ha
How it was run: as §1

[15] = test system: wheat (Triticum aestivum); experiment: Test A postemergence; conditions: for Wheat plant response rating: 125 g ai/ha, visual injury rating on 0 to 100 scale (0 no effect, 100 complete control), approx. 10 d; for Plant response rating, Wheat: 500 g ai/ha
How it was run: as §1

[16] = test system: barnyardgrass (Echinochloa crus-galli); experiment: Test B flooded paddy test; conditions: Flood, 0 to 100 scale where 0 is no effect and 100 is complete control, 13 to 15 d
Procedure: (§2) Plant species in the flooded paddy test selected from rice (Oryra sativa), sedge, umbrella (small-flower umbrella sedge, Cyperus difformis), ducksalad (Heteranthera limosa), and barnyardgrass (Echinochloa crus-galli) were grown to the 2-leaf stage for testing. At time of treatment, test pots were flooded to 3 cm above the soil surface, treated by application of test compounds directly to the paddy water, and then maintained at that water depth for the duration of the test. Treated plants and controls were maintained in a greenhouse for 13 to 15 d, after which time all species were compared to controls and visually evaluated. Plant response ratings, summarized in Table B, are based on a scale of 0 to 100 where 0 is no effect and 100 is complete control. A dash (-) response means no test result.

[17] = test system: ducksalad (Heteranthera limosa); experiment: Test B flooded paddy test; conditions: Flood, 0 to 100 scale where 0 is no effect and 100 is complete control, 13 to 15 d
Procedure: as §2

rice (Oryra sativa) = experiment: Test B flooded paddy test; conditions: Flood, 0 to 100 scale where 0 is no effect and 100 is complete control, 13 to 15 d
Procedure: as §2

[18] = test system: sedge, umbrella (small-flower umbrella sedge, Cyperus difformis); experiment: Test B flooded paddy test; conditions: Flood, 0 to 100 scale where 0 is no effect and 100 is complete control, 13 to 15 d
Procedure: as §2

[19] = Preemergence, visual injury after approximately 10 d, 0 to 100 scale where 0 is no effect and 100 is complete control
[20] = Postemergence, 0 to 100 scale where 0 is no effect and 100 is complete control
[21] = preemergence, 0 to 100 scale (0 no effect, 100 complete control)
[22] = postemergence, 0 to 100 scale, 0 no effect, 100 complete control

For COCc1cccc(C2CNC(=O)C2C(=O)Nc2ccccc2F)c1 (stereo not drawn) [Compound 496], the “Plant response rating, Kochia” value (Kochia (Kochia scoparia) [1]; [19]) was 0, the “Kochia plant response rating (0 to 100 scale, 0 is no effect, 100 is complete control)” value (Kochia (Kochia scoparia) [1]; Preemergence) was 40 and the “Plant response rating, Barnyardgrass” value [2, 19] was 60. The “Barnyardgrass plant response rating (0 to 100 scale, 0 is no effect, 100 is complete control)” value ([2]; Preemergence) was 90, the “Plant response rating, Foxtail, Giant” value [3, 19] was 30 and the “Foxtail, Giant plant response rating (0 to 100 scale, 0 is no effect, 100 is complete control)” value ([3]; Preemergence) was 90. The “Plant response rating, Pigweed” value [4, 19] was 0, the “Pigweed plant response rating (0 to 100 scale, 0 is no effect, 100 is complete control)” value ([4]; Preemergence) was 0 and the “Plant response rating, Ragweed” value [5, 19] was 0. The “Ragweed plant response rating (0 to 100 scale, 0 is no effect, 100 is complete control)” value ([5]; Preemergence) was 0, the “Plant response rating, Ryegrass, Italian” value [6, 19] was 0 and the “Ryegrass, Italian plant response rating (0 to 100 scale, 0 is no effect, 100 is complete control)” value ([6]; Preemergence) was 0. The “Galium plant response rating” value ([7]; postemergence) was 0, the “Plant response rating, Galium” value [7, 20] was 30 and the “Kochia plant response rating” value (Kochia (Kochia scoparia) [8]; postemergence) was 0. The “Plant response rating, Kochia” value (Kochia (Kochia scoparia) [8]; [20]) was 0, the “Barnyardgrass plant response rating” value ([9]; postemergence) was 60 and the “Plant response rating, Barnyardgrass” value [9, 20] was 80. For the same compound, the “Blackgrass plant response rating” value ([10]; postemergence) was 0, the “Plant response rating, Blackgrass” value [10, 20] was 0 and the “Corn plant response rating” value (corn (Zea mays); postemergence) was 0. For the same compound, the “Plant response rating, Corn” value (corn (Zea mays); [20]) was 0, the “Foxtail, Giant plant response rating” value ([11]; postemergence) was 20 and the “Plant response rating, Foxtail, Giant” value [11, 20] was 50. The “Pigweed plant response rating” value ([12]; postemergence) was 0, the “Plant response rating, Pigweed” value [12, 20] was 0 and the “Ragweed plant response rating” value ([13]; postemergence) was 0. The “Plant response rating, Ragweed” value [13, 20] was 0, the “Ryegrass, Italian plant response rating” value ([14]; postemergence) was 0 and the “Plant response rating, Ryegrass, Italian” value [14, 20] was 0. For the same compound, the “Wheat plant response rating” value ([15]; postemergence) was 0, the “Plant response rating, Wheat” value [15, 20] was 0 and the “Plant response rating, Barnyardgrass” value ([16]; 250 g ai/ha) was 60. The “Plant response rating, Ducksalad” value ([17]; 250 g ai/ha) was 85, the “Plant response rating, Rice” value (rice (Oryra sativa); 250 g ai/ha) was 0 and the “Plant response rating, Sedge, Umbrella” value ([18]; 250 g ai/ha) was 0.
Cc1cccc(NC(=O)C2C(=O)NCC2c2cccc(OC(F)F)c2)c1F (stereo not drawn) [Compound 420] was tested, and the “Plant response rating, Kochia” value (Kochia (Kochia scoparia) [1]; [21]) was 0, the “Kochia plant response rating (0 to 100 scale, 0 is no effect, 100 is complete control)” value (Kochia (Kochia scoparia) [1]; Preemergence) was 30 and the “Plant response rating, Barnyardgrass” value [2, 21] was 70. For the same compound, the “Barnyardgrass plant response rating (0 to 100 scale, 0 is no effect, 100 is complete control)” value ([2]; Preemergence) was 90, the “Plant response rating, Foxtail, Giant” value [3, 21] was 90 and the “Foxtail, Giant plant response rating (0 to 100 scale, 0 is no effect, 100 is complete control)” value ([3]; Preemergence) was 90. The “Plant response rating, Pigweed” value [4, 21] was 0, the “Pigweed plant response rating (0 to 100 scale, 0 is no effect, 100 is complete control)” value ([4]; Preemergence) was 30 and the “Plant response rating, Ragweed” value [5, 21] was 0. The “Ragweed plant response rating (0 to 100 scale, 0 is no effect, 100 is complete control)” value ([5]; Preemergence) was 0, the “Plant response rating, Ryegrass, Italian” value [6, 21] was 0 and the “Ryegrass, Italian plant response rating (0 to 100 scale, 0 is no effect, 100 is complete control)” value ([6]; Preemergence) was 0. The “Galium plant response rating” value ([7]; postemergence) was 0, the “Plant response rating, Galium” value [7, 22] was 0 and the “Kochia plant response rating” value (Kochia (Kochia scoparia) [8]; postemergence) was 0. For the same compound, the “Plant response rating, Kochia” value (Kochia (Kochia scoparia) [8]; [22]) was 0, the “Barnyardgrass plant response rating” value ([9]; postemergence) was 80 and the “Plant response rating, Barnyardgrass” value [9, 22] was 90. For the same compound, the “Blackgrass plant response rating” value ([10]; postemergence) was 0, the “Plant response rating, Blackgrass” value [10, 22] was 0 and the “Corn plant response rating” value (corn (Zea mays); postemergence) was 0. The “Plant response rating, Corn” value (corn (Zea mays); [22]) was 0, the “Foxtail, Giant plant response rating” value ([11]; postemergence) was 70 and the “Plant response rating, Foxtail, Giant” value [11, 22] was 80. The “Pigweed plant response rating” value ([12]; postemergence) was 0, the “Plant response rating, Pigweed” value [12, 22] was 0 and the “Ragweed plant response rating” value ([13]; postemergence) was 0. The “Plant response rating, Ragweed” value [13, 22] was 0, the “Ryegrass, Italian plant response rating” value ([14]; postemergence) was 0 and the “Plant response rating, Ryegrass, Italian” value [14, 22] was 0. For the same compound, the “Wheat plant response rating” value ([15]; postemergence) was 0, the “Plant response rating, Wheat” value [15, 22] was 0 and the “Plant response rating, Barnyardgrass” value ([16]; 500 g ai/ha) was 65. The “Plant response rating, Ducksalad” value ([17]; 500 g ai/ha) was 85, the “Plant response rating, Rice” value (rice (Oryra sativa); 500 g ai/ha) was 25 and the “Plant response rating, Sedge, Umbrella” value ([18]; 500 g ai/ha) was 0.
